This note sets out measurements from patent publication US20120107333A1, “VANGL1 PEPTIDES AND VACCINES INCLUDING THE SAME” (Oncotherapy Science, Inc., priority 2009, published 2012).

Non-standard residues stand in square brackets, D forms with d. No end group written: not given here.

Test [1] relates to peptide-pulsed A24LCL cells. The test is described as follows: IFN-gamma ELISPOT assay on CTLs induced with VANGL1 peptides. Type of test: cell-based, human. As to conditions: CTLs from HLA-A*2402 positive donor after 3rd peptide stimulation, day 21; compared to the control wells. From the text:
(§1) Monocyte-derived dendritic cells (DCs) were used as antigen-presenting cells (APCs) to induce cytotoxic T lymphocyte (CTL) responses against peptides presented on human leukocyte antigen (HLA). DCs were generated in vitro as described elsewhere (Nakahara S et al., Cancer Res 2003 Jul. 15, 63(14): 4112-8). Specifically, peripheral blood mononuclear cells (PBMCs) isolated from a normal volunteer (HLA-A*2402 positive) by Ficoll-Plaque (Pharmacia) solution were separated by adherence to a plastic tissue culture dish (Becton Dickinson) so as to enrich them as the monocyte fraction. The monocyte-enriched population was cultured in the presence of 1,000 U/ml of granulocyte-macrophage colony-stimulating factor (GM-CSF) (R&D System) and 1,000 U/ml of interleukin (IL)-4 (R&D System) in AIM-V Medium (Invitrogen) containing 2% heat-inactivated autologous serum (AS). After 7 days of culture, the cytokine-induced DCs were pulsed with 20 micro-g/ml of each of the synthesized peptides in the presence of 3 micro-g/ml of beta 2-microglobulin for 3 hrs at 37 degrees C. in AIM-V Medium. The generated cells appeared to express DC-associated molecules, such as CD80, CD83, CD86 and HLA class II, on their cell surfaces (data not shown). These peptide-pulsed DCs were then inactivated by X-irradiation (20 Gy) and mixed at a 1:20 ratio with autologous CD8+ T cells, obtained by positive selection with CD8 Positive Isolation Kit (Dynal). These cultures were set up in 48-well plates (Corning); each well contained 1.5×10^4 peptide-pulsed DCs, 3×10^5 CD8+ T cells and 10 ng/ml of IL-7 (R&D System) in 0.5 ml of AIM-V/2% AS medium. Three days later, these cultures were supplemented with IL-2 (CHIRON) to a final concentration of 20 IU/ml. On days 7 and 14, the T cells were further stimulated with the autologous peptide-pulsed DCs. The DCs were prepared each time by the same way described above. CTL was tested against peptide-pulsed A24LCL cells after the 3rd round of peptide stimulation on day 21 (Tanaka H et al., Br J Cancer 2001 Jan. 5, 84(1): 94-9; Umano Y et al., Br J Cancer 2001 Apr. 20, 84(8): 1052-7; Uchida N et al., Clin Cancer Res 2004 Dec. 15, 10(24): 8577-86; Suda T et al., Cancer Sci 2006 May, 97(5): 411-9; Watanabe T et al., Cancer Sci 2005 August, 96(8): 498-506).
(§2) To examine specific CTL activity, interferon (IFN)-gamma enzyme-linked immunospot (ELISPOT) assay and IFN-gamma enzyme-linked immunosorbent assay (ELISA) were performed. Specifically, peptide-pulsed A24LCL (1×10^4/well) was prepared as stimulator cells. Cultured cells in 48 wells were used as responder cells. IFN-gamma ELISPOT assay and IFN-gamma ELISA assay were performed under manufacture procedure.

Test [2] concerns peptide-pulsed A24LCL cells. Nature of the test: IFN-gamma ELISA assay of established CTL lines. Type of test: cell-based, human. The settings on record: target cells pulsed with corresponding peptide vs target cells without peptide pulse.
Description: as §1
CTLs were expanded in culture using the method similar to the one described by Riddell et al. (Walter E A et al., N Engl J Med 1995 Oct. 19, 333(16): 1038-44; Riddell S R et al., Nat Med 1996 February, 2(2): 216-23). A total of 5×10^4 CTLs were suspended in 25 ml of AIM-V/5% AS medium with 2 kinds of human B-lymphoblastoid cell lines, inactivated by Mitomycin C, in the presence of 40 ng/ml of anti-CD3 monoclonal antibody (Pharmingen). One day after initiating the cultures, 120 IU/ml of IL-2 were added to the cultures. The cultures were fed with fresh AIM-V/5% AS medium containing 30 IU/ml of IL-2 on days 5, 8 and 11 (Tanaka H et al., Br J Cancer 2001 Jan. 5, 84(1): 94-9; Umano Y et al., Br J Cancer 2001 Apr. 20, 84(8): 1052-7; Uchida N et al., Clin Cancer Res 2004 Dec. 15, 10(24): 8577-86; Suda T et al., Cancer Sci 2006 May, 97(5): 411-9; Watanabe T et al., Cancer Sci 2005 August, 96(8): 498-506).
as §2

Test [3] relates to target cells pulsed peptide. Nature of the test: IFN-gamma ELISA assay of CTL clones established by limiting dilution. Type of test: cell-based, human. As to conditions: CTL clones against target cells pulsed peptide. The procedure: The dilutions were made to have 0.3, 1, and 3 CTLs/well in 96 round-bottomed micro titer plate (Nalge Nunc International). CTLs were cultured with 1×10^4 cells/well of 2 kinds of human B-lymphoblastoid cell lines, 30 ng/ml of anti-CD3 antibody, and 125 U/ml of IL-2 in a total of […] of AIM-V Medium containing 5% AS. 50 micro-Dwell of IL-2 were added to the medium 10 days later so to reach a final concentration of 125 U/ml IL-2. CTL activity was tested on the 14th day, and CTL clones were expanded using the same method as described above (Uchida N et al., Clin Cancer Res 2004 Dec. 15, 10(24): 8577-86; Suda T et al., Cancer Sci 2006 May, 97(5): 411-9; Watanabe T et al., Cancer Sci 2005 August, 96(8): 498-506).
as §2

In test [4] the test system is COS7 cells transfected with VANGL1 and HLA-A*2402. The test is described as follows: Specific CTL activity against target cells exogenously expressing VANGL1 and HLA-A*2402. Type of test: cell-based, African green monkey. From the text:
The cDNA encoding an open reading frame of target genes or HLA-A*2402 was amplified by PCR. The PCR-amplified product was cloned into pCAGGS vector. The plasmids were transfected into COS7, which is the target genes and HLA-A24-negative cell line, using lipofectamine 2000 (Invitrogen) according to the manufacturer's recommended procedures. After 2 days from transfection, the transfected cells were harvested with versene (Invitrogen) and used as the target cells (5×10^4 cells/well) for CTL activity assay.
The established CTL lines raised against these peptides were examined for their ability to recognize target cells that endogenously express VANGL1 and HLA-A*2402 molecule. Specific CTL activity against COS7 cells which transfected with both the full length of VANGL1 and HLA-A*2402 molecule gene (a specific model for the target cells that exogenously express VANGL1 and HLA-A*2402 gene) was tested using the CTL lines raised by corresponding peptide as the effecter cells. COS7 cells transfected with either full length of VANGL1 genes or HLA-A* 2402 were prepared as controls.

For “LFIHyLAIVL (LFIH[code y]LAIVL) [SEQ ID NO: 24]”, the “Peptide specific CTL activity: IFN-gamma production (ELISPOT)” value (“Peptide specific CTL activity” for short) in test [1] is reported as “potent IFN-gamma production”. In addition, in test [2], the “CTL activity of CTL lines: IFN-gamma production (ELISA)” value (from here on “CTL activity of CTL lines”) is “potent IFN-gamma production”. Moreover, the “IFN-gamma production from CTL clones (ELISA)” value in test [3] is listed as “Potent IFN-gamma productions”.

Turning to “LFISmAFKLL (LFIS[code m]AFKLL) [SEQ ID NO: 25]”, the “Peptide specific CTL activity” value in test [1] is on record as “potent IFN-gamma production”. Also, in test [2], the “CTL activity of CTL lines” value is given as “potent IFN-gamma production”.

As to RYLGLTVAS [SEQ ID NO: 11], the “Peptide specific CTL activity” value in test [1] is “potent IFN-gamma production”. The “CTL activity of CTL lines” value in test [2] is on record as “potent IFN-gamma production”.

Turning to “DFTIyNPNLL (DFTI[code y]NPNLL) [SEQ ID NO: 26]”, the “Peptide specific CTL activity” value in test [1] is “potent IFN-gamma production”.

Regarding VFVFRALLL [SEQ ID NO: 8], the “Peptide specific CTL activity” value in test [1] was “potent IFN-gamma production”. The “CTL activity of CTL lines” value in test [2] is given as “potent IFN-gamma production”. In addition, the “IFN-gamma production from CTL clones (ELISA)” value in test [3] is reported as “Potent IFN-gamma productions”.

Take VFRALLLVL [SEQ ID NO: 9]: the “Peptide specific CTL activity” value in test [1] is “potent IFN-gamma production”. For the same substance, in test [2], the “CTL activity of CTL lines” value is recorded as “potent IFN-gamma production”.

For VELTpIAFIL [SEQ ID NO: 22], the “Peptide specific CTL activity” value in test [1] is given as “potent IFN-gamma production”. The “CTL activity of CTL lines” value in test [2] is reported as “potent IFN-gamma production”. In addition, in test [3], the “IFN-gamma production from CTL clones (ELISA)” value is given as “Potent IFN-gamma productions”.

Consider “HYLAiVLLEL (HYLA[code i]VLLEL) [SEQ ID NO: 18]”, for which the “Peptide specific CTL activity” value in test [1] is “potent IFN-gamma production”. Also, the “CTL activity of CTL lines” value in test [2] was “potent IFN-gamma production”. For the same substance, the “IFN-gamma production from CTL clones (ELISA)” value in test [3] is “Potent IFN-gamma productions”.

Take RYLSAGPTL [SEQ ID NO: 1]: the “Specific CTL activity” value in test [4] (COS7 cells expressing both VANGL1 and HLA-A*2402) is “potent CTL activity”; in test [4] (controls: COS7 cells transfected with either full length VANGL1 or HLA-A*2402), “no significant specific CTL activity”. The “Peptide specific CTL activity” value in test [1] is on record as “potent IFN-gamma production”. Also, the “CTL activity of CTL lines” value in test [2] was “potent IFN-gamma production”.

On to LFVVSYWLF [SEQ ID NO: 12], for which the “Peptide specific CTL activity” value in test [1] is recorded as “potent IFN-gamma production”. Moreover, in test [2], the “CTL activity of CTL lines” value was “potent IFN-gamma production”.

Regarding “NYQGiVQYAV (NYQG[code i]VQYAV) [SEQ ID NO: 32]”, the “Peptide specific CTL activity” value in test [1] is “potent IFN-gamma production”. In addition, the “CTL activity of CTL lines” value in test [2] is “potent IFN-gamma production”.
